Assay results: ChEMBL document CHEMBL1138441, “3-Benzyl-1,3-oxazolidin-2-ones as mGluR2 positive allosteric modulators: Hit-to lead and lead optimization” (Bioorg Med Chem Lett, 2009)

How the values were obtained:
[1] = Drug level in mouse brain at 10 mg/kg, sc after 2 hrs; type: ADME, organism-based; parameters: dose 10 mg/kg, route subcutaneous; settings: read-out: Drug uptake
[2] = Plasma concentration in mouse at 10 mg/kg, sc after 2 hrs; type: ADME, organism-based; parameters: dose 10 mg/kg, route subcutaneous; settings: read-out: Drug uptake
[3] = Ratio of drug level in mouse brain to plasma at 10 mg/kg, sc after 2 hrs; type: ADME, organism-based; parameters: dose 10 mg/kg, route subcutaneous
[4] = Volume of distribution at steady state in rat at 1 mg/kg, iv; type: ADME, organism-based; parameters: dose 1 mg/kg, route intravenous; settings: in vivo, read-out: Vdss
[5] = Oral bioavailability in rat at 10 mg/kg; type: ADME, organism-based; settings: in vivo
[6] = Drug level in mouse brain at > 32 mg/kg, sc after 30 mins; type: ADME, organism-based; parameters: dose 32 mg/kg, route subcutaneous; settings: read-out: Drug uptake
[7] = Plasma concentration in mouse at > 32 mg/kg, sc after 30 mins; type: ADME, organism-based; parameters: dose 32 mg/kg, route subcutaneous; settings: read-out: Drug uptake
[8] = Oral bioavailability in rat at 3 mg/kg; type: ADME, organism-based; settings: in vivo
[9] = Permeability from apical to basolateral side of MDCK cells at 2 uM by MS based assay; type: ADME, cell-based, Canis lupus familiaris; settings: dog
[10] = Ratio of drug level in mouse brain to plasma at > 32 mg/kg, sc after 30 mins; type: ADME, organism-based; parameters: dose 32 mg/kg, route subcutaneous

C[C@@H]1CN(Cc2ccc(-c3ccc(F)c(Cl)c3)cc2)C(=O)O1
concentration at 2 h [1]: 2750 ng/g | concentration at 2 h [2]: 750 ng/mL | Kp at 2 h [3]: 3.7 | Vd [4]: 3.2 L/kg | bioavailability [5]: 64%

C[C@@H]1CN(Cc2ccc(-c3ccc(F)cc3F)cc2)C(=O)O1
concentration at 2 h [1]: 2230 ng/g | concentration at 2 h [2]: 1070 ng/mL | Kp at 2 h [3]: 2.1

C[C@@H]1CN(Cc2ccc(-c3ccc(OC(F)(F)F)cc3F)nc2)C(=O)O1
concentration at 0.5 h [6]: 10100 ng/g | concentration at 0.5 h [7]: 3550 ng/mL | Vd [4]: 4.7 L/kg | bioavailability [8]: 100%

CC(Oc1ccc(CN2C[C@@H](C)OC2=O)cc1)C1CCCCC1 (single isomer, unassigned)
Papp A→B at 2 µM [9]: 12.3 ×10⁻⁶ cm/s | Kp at 0.5 h [10]: 3
